{"source": "patent US6914045B2", "about": "“Glycopeptide antibiotics” (Wyeth Holdings Corporation, priority 2001, dated 2005)", "key": {"[1]": {"test_system": "Enterococcus sp.", "test": "in vitro antibacterial evaluation, MIC by broth dilution", "assay_type": "cell-based", "settings": "broth dilution, 18 hours at 35° C.", "in_short": "(§1)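 Test organisms, which included recent clinical isolates resistant to methicillin, penicillin and/or vancomycin, were inoculated at 5×10^5 CFU/mL into Muller-Hinton II […] containing antibiotic at 64-0.06 μg/mL. Minimum inhibitory concentrations were then read as the lowest level inhibiting growth.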"}, "[2]": {"test_system": "Escherichia coli", "test": "in vitro antibacterial evaluation, MIC by broth dilution", "assay_type": "cell-based", "settings": "18 hours at 35° C.", "in_short": "as §1"}, "[3]": {"test_system": "Staphylococcus sp.", "test": "in vitro antibacterial evaluation, MIC by broth dilution", "assay_type": "cell-based", "settings": "broth dilution, 18 hours at 35° C.", "in_short": "as §1"}, "[4]": {"test_system": "Streptococcus sp.", "test": "in vitro antibacterial evaluation, MIC by broth dilution", "assay_type": "cell-based", "settings": "broth dilution, 18 hours at 35° C.", "in_short": "as §1"}, "[5]": {"test_system": "Enterococcus faecalis (GC 6189)", "test": "acute lethal infection in mice", "assay_type": "in vivo", "settings": "female CD-1 mice, intraperitoneal challenge, intravenous 30 min. after infection, 7 day survival", "in_short": "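Intraperitoneal challenge of female CD-1 mice with a bacterial dose lethal to untreated animals within 24-48 hr; single iv treatment 30 min later, 5 mice per dose level. Survival is scored at day 7 and pooled from three experiments to give the median effective dose.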"}}}
{"smiles": "CCC(CC)C1OCC2OC(OC3C(CO)OC(Oc4ccc(CC5NC(=O)C(C(C)c6ccccc6)NC(=O)CNC(=O)C(CO)NC(=O)C(C(O)C6CNC(=N)N6C6OC(CO)C(O)C(O)C6O)NC(=O)C(C(O)C6CNC(=N)N6)NC5=O)cc4)C(O)C3O)C(O)C(O)C2O1", "note": "(stereo not drawn) [Example 116, Cyclo[glycyl-β-methylphenylalanyl-O-[4-O-[4,6-O-(2-ethylbutylidene)hexopyranosyl]-hexopyranosyl]tyrosyl-3-(2-iminoimidazolidin-4-yl)seryl-3-(3-hexopyranosvl-2-iminoimidazolidin-4-yl)serylseryl]]", "values": [{"measurement": "MIC Enterococcus avium (GC 4558)", "setting": "[1]; Enterococcus avium (GC 4558)", "result": 2, "unit": "µg/mL"}, {"measurement": "MIC Enterococcus faecalis (ATCC 29212)", "setting": "[1]; Enterococcus faecalis (ATCC 29212)", "result": 2, "unit": "µg/mL"}, {"measurement": "MIC Enterococcus faecalis (GC 2242)", "setting": "[1]; Enterococcus faecalis (GC 2242)", "result": 2, "unit": "µg/mL"}, {"measurement": "MIC Enterococcus faecalis (GC 2691)", "setting": "[1]; Enterococcus faecalis (GC 2691)", "result": 2, "unit": "µg/mL"}, {"measurement": "MIC Enterococcus faecalis (GC 3059)", "setting": "[1]; Enterococcus faecalis (GC 3059)", "result": 2, "unit": "µg/mL"}, {"measurement": "MIC Enterococcus faecalis (GC 4552)", "setting": "[1]; Enterococcus faecalis (GC 4552)", "result": 2, "unit": "µg/mL"}, {"measurement": "MIC Enterococcus faecalis (GC 4553)", "setting": "[1]; Enterococcus faecalis (GC 4553)", "result": 2, "unit": "µg/mL"}, {"measurement": "MIC Enterococcus faecalis (GC 4554)", "setting": "[1]; Enterococcus faecalis (GC 4554)", "result": 2, "unit": "µg/mL"}, {"measurement": "MIC Enterococcus faecalis (GC 6189)", "setting": "[1]; Enterococcus faecalis (GC 6189)", "result": 2, "unit": "µg/mL"}, {"measurement": "MIC Enterococcus faecium (GC 2243)", "setting": "[1]; Enterococcus faecium (GC 2243)", "result": 2, "unit": "µg/mL"}, {"measurement": "MIC Enterococcus faecium (GC 4556)", "setting": "[1]; Enterococcus faecium (GC 4556)", "result": 2, "unit": "µg/mL"}, {"measurement": "MIC Enterococcus faecium (GC 4557)", "setting": "[1]; Enterococcus faecium (GC 4557)", "result": 2, "unit": "µg/mL"}, {"measurement": "MIC Enterococcus faecalis (ATCC 29212)", "setting": "[1]; strain ATCC 29212", "result": 2, "unit": "µg/mL"}, {"measurement": "MIC Enterococcus faecalis (GC 2242)", "setting": "[1]; strain GC 2242", "result": 2, "unit": "µg/mL"}, {"measurement": "MIC Enterococcus faecium (GC 2243)", "setting": "[1]; strain GC 2243", "result": 2, "unit": "µg/mL"}, {"measurement": "MIC Enterococcus faecalis (GC 2691)", "setting": "[1]; strain GC 2691", "result": 2, "unit": "µg/mL"}, {"measurement": "MIC Enterococcus faecalis (GC 3059)", "setting": "[1]; strain GC 3059", "result": 2, "unit": "µg/mL"}, {"measurement": "MIC Enterococcus faecalis (GC 4552)", "setting": "[1]; strain GC 4552", "result": 2, "unit": "µg/mL"}, {"measurement": "MIC Enterococcus faecalis (GC 4553)", "setting": "[1]; strain GC 4553", "result": 2, "unit": "µg/mL"}, {"measurement": "MIC Enterococcus faecalis (GC 4554)", "setting": "[1]; strain GC 4554", "result": 2, "unit": "µg/mL"}, {"measurement": "MIC Enterococcus faecium (GC 4556)", "setting": "[1]; strain GC 4556", "result": 2, "unit": "µg/mL"}, {"measurement": "MIC Enterococcus faecium (GC 4557)", "setting": "[1]; strain GC 4557", "result": 2, "unit": "µg/mL"}, {"measurement": "MIC Enterococcus avium (GC 4558)", "setting": "[1]; strain GC 4558", "result": 2, "unit": "µg/mL"}, {"measurement": "MIC Enterococcus faecalis (GC 6189)", "setting": "[1]; strain GC 6189", "result": 2, "unit": "µg/mL"}, {"measurement": "MIC Escherichia coli (ATCC 25922)", "setting": "[2]; strain ATCC 25922", "result": 32, "unit": "µg/mL"}, {"measurement": "MIC Escherichia coli (GC 4559)", "setting": "[2]; strain GC 4559", "result": 64, "unit": "µg/mL"}, {"measurement": "MIC Escherichia coli (GC 4560)", "setting": "[2]; strain GC 4560", "result": 1, "unit": "µg/mL"}, {"measurement": "MIC Coagulase Negative Staphylococcus (GC 4547)", "setting": "[3]", "result": 1, "unit": "µg/mL"}, {"measurement": "MIC Coagulase Negative Staphylococcus (GC 4548)", "setting": "[3]", "result": 1, "unit": "µg/mL"}, {"measurement": "MIC Coagulase Negative Staphylococcus (GC 4549)", "setting": "[3]", "result": 1, "unit": "µg/mL"}, {"measurement": "MIC Coagulase Negative Staphylococcus (GC 4551)", "setting": "[3]", "result": 1, "unit": "µg/mL"}, {"measurement": "MIC Coagulase Negative Staphylococcus (GC 6257)", "setting": "[3]", "result": 0.5, "unit": "µg/mL"}, {"measurement": "MIC Staphylococcus aureus (ATCC 29213)", "setting": "[3]", "result": 1, "unit": "µg/mL"}, {"measurement": "MIC Staphylococcus aureus (GC 1131)", "setting": "[3]", "result": 1, "unit": "µg/mL"}, {"measurement": "MIC Staphylococcus aureus (GC 3051)", "setting": "[3]", "result": 1, "unit": "µg/mL"}, {"measurement": "MIC Staphylococcus aureus (GC 3053)", "setting": "[3]", "result": 1, "unit": "µg/mL"}, {"measurement": "MIC Staphylococcus aureus (GC 4541)", "setting": "[3]", "result": 1, "unit": "µg/mL"}, {"measurement": "MIC Staphylococcus aureus (GC 4542)", "setting": "[3]", "result": 0.5, "unit": "µg/mL"}, {"measurement": "MIC Staphylococcus aureus (GC 4544)", "setting": "[3]", "result": 1, "unit": "µg/mL"}, {"measurement": "MIC Staphylococcus aureus (GC 4545)", "setting": "[3]", "result": 1, "unit": "µg/mL"}, {"measurement": "MIC Staphylococcus aureus-SMITH (GC 4543)", "setting": "[3]", "result": 1, "unit": "µg/mL"}, {"measurement": "MIC Staphylococcus haemolyticus (GC 4546)", "setting": "[3]", "result": 0.5, "unit": "µg/mL"}, {"measurement": "MIC Staphylococcus aureus (GC 1131)", "setting": "[3]; inoculum 5×10^5 CFU/mL, strain GC 1131", "result": 1, "unit": "µg/mL"}, {"measurement": "MIC Staphylococcus aureus (ATCC 29213)", "setting": "[3]; strain ATCC 29213", "result": 1, "unit": "µg/mL"}, {"measurement": "MIC Staphylococcus aureus (GC 3051)", "setting": "[3]; strain GC 3051", "result": 1, "unit": "µg/mL"}, {"measurement": "MIC Staphylococcus aureus (GC 3053)", "setting": "[3]; strain GC 3053", "result": 1, "unit": "µg/mL"}, {"measurement": "MIC Staphylococcus aureus (GC 4541)", "setting": "[3]; strain GC 4541", "result": 1, "unit": "µg/mL"}, {"measurement": "MIC Staphylococcus aureus (GC 4542)", "setting": "[3]; strain GC 4542", "result": 0.5, "unit": "µg/mL"}, {"measurement": "MIC Staphylococcus aureus (GC 4544)", "setting": "[3]; strain GC 4544", "result": 1, "unit": "µg/mL"}, {"measurement": "MIC Staphylococcus aureus (GC 4545)", "setting": "[3]; strain GC 4545", "result": 1, "unit": "µg/mL"}, {"measurement": "MIC Staphylococcus haemolyticus (GC 4546)", "setting": "[3]; strain GC 4546", "result": 0.5, "unit": "µg/mL"}, {"measurement": "MIC Coagulase Negative Staphylococcus (GC 4547)", "setting": "[3]; strain GC 4547", "result": 1, "unit": "µg/mL"}, {"measurement": "MIC Coagulase Negative Staphylococcus (GC 4548)", "setting": "[3]; strain GC 4548", "result": 1, "unit": "µg/mL"}, {"measurement": "MIC Coagulase Negative Staphylococcus (GC 4549)", "setting": "[3]; strain GC 4549", "result": 1, "unit": "µg/mL"}, {"measurement": "MIC Coagulase Negative Staphylococcus (GC 4551)", "setting": "[3]; strain GC 4551", "result": 1, "unit": "µg/mL"}, {"measurement": "MIC Coagulase Negative Staphylococcus (GC 6257)", "setting": "[3]; strain GC 6257", "result": 0.5, "unit": "µg/mL"}, {"measurement": "MIC Staphylococcus aureus-SMITH (GC 4543)", "setting": "[3]; strain SMITH GC 4543", "result": 1, "unit": "µg/mL"}, {"measurement": "MIC Streptococcus agalactiae (GC 4564)", "setting": "[4]; Streptococcus agalactiae (GC 4564)", "result": 0.25, "unit": "µg/mL"}, {"measurement": "MIC Streptococcus pneumoniae (ATCC 6301)", "setting": "[4]; Streptococcus pneumoniae (ATCC 6301)", "result": "<0.06", "unit": "µg/mL"}, {"measurement": "MIC Streptococcus pneumoniae (GC 1894)", "setting": "[4]; Streptococcus pneumoniae (GC 1894)", "result": "<0.06", "unit": "µg/mL"}, {"measurement": "MIC Streptococcus pneumoniae (GC 4565)", "setting": "[4]; Streptococcus pneumoniae (GC 4565)", "result": "<0.06", "unit": "µg/mL"}, {"measurement": "MIC Streptococcus pyogenes (GC 4563)", "setting": "[4]; Streptococcus pyogenes (GC 4563)", "result": 0.25, "unit": "µg/mL"}, {"measurement": "MIC Streptococcus pneumoniae (ATCC 6301)", "setting": "[4]; strain ATCC 6301", "result": "<0.06", "unit": "µg/mL"}, {"measurement": "MIC Streptococcus pneumoniae (GC 1894)", "setting": "[4]; strain GC 1894", "result": "<0.06", "unit": "µg/mL"}, {"measurement": "MIC Streptococcus pyogenes (GC 4563)", "setting": "[4]; strain GC 4563", "result": 0.25, "unit": "µg/mL"}, {"measurement": "MIC Streptococcus agalactiae (GC 4564)", "setting": "[4]; strain GC 4564", "result": 0.25, "unit": "µg/mL"}, {"measurement": "MIC Streptococcus pneumoniae (GC 4565)", "setting": "[4]; strain GC 4565", "result": "<0.06", "unit": "µg/mL"}, {"measurement": "median effective dose (ED50), Enterococcus faecalis (GC 6189)", "setting": "[5]", "result": 0.46, "unit": "mg/kg"}]}
